Measurements: US5663298A, “UCK14 compounds” (Kyowa Hakko Kogyo Co., Ltd., priority 1995, dated 1997)

Legend:
[1] = system: human epidermoid carcinoma A431 cells; assay: Growth inhibition against human epidermoid carcinoma A431 cells (MTT); assay type: cell-based; conditions: 72 hours culture, read-out: IC50 (50% growth inhibitory concentration) A431
Description: (§1) Growth inhibition against human epidermoid carcinoma A431 cells and human pancreatic carcinoma PSN-1 cells
(§2) Human epidermoid carcinoma A431 cells (ATCC CRL 1555) were suspended in Dulbecco's modified Eagle's medium (Nissui Pharmaceutical Co., Ltd.) supplemented with 10% fetal bovine serum (Filtron), and human pancreatic carcinoma PSN-1 cells [Biochem. Biophys. Res. Commun. 140, 167 (1986)] were suspended in RPMI-1640 medium (Gibco BRL) supplemented with 5% fetal bovine serum (Filtron). Each cell suspension was put into wells of a 96-well microtiter plate (#167008, Nunc) in an amount of 3×10^3 cells/well, followed by preincubation in a 5% CO2 -incubator at 37° C. for 24 hours. Then, 5mM solutions of UCK14A1, UCK14A2 and UCK14C were diluted stepwise and the resulting solutions were respectively added to the wells in an amount of 50 μl/well (highest final concentration: 1 mM). The cells were cultured in the 5% CO2 -incubator at 37° C. for 72 hours. Five hours before the end of culturing, 50 μl of a solution of MTT [3-(4,5-dimethylthiazo-2-yl)-2,5-diphenyltetrazolium bromide (Sigma Chemical Co., Ltd.)] in the medium (final concentration: 1 mg/ml) was added to each well. After the completion of culturing, DMSO was added to the wells in an amount of 150 μl/well, followed by vigorous stirring with a plate mixer to completely dissolve crystals of MTT-formazan. […]

[2] = system: human pancreatic carcinoma PSN-1 cells; assay: Growth inhibition against human pancreatic carcinoma PSN-1 cells (MTT); assay type: cell-based; conditions: 72 hours culture, read-out: IC50 (50% growth inhibitory concentration) PSN-1
Description: as §1, §2

[3] = Solubility (physicochemical properties); conditions: qualitative, in various solvents
Description: The physicochemical properties of UCK14 compounds are shown below.

IC50 [1]: 25.2 µM
IC50 [2]: 16.1 µM
SMILES: CCC(C)C1C(=O)OC1C(=O)NC1CC1CC(NC(=O)C(C)N)C(=O)O (stereo not drawn) [UCK14A1]
Solubility [3]: Soluble in water, methanol and dimethylsulfoxide (DMSO); insoluble in hexane, chloroform and ethyl acetate
